Like-named read-outs stand apart in the source and are kept apart here. Marks after values point to notes of the source that are not given here.
Assays:
MTT cell viability assay = assay type: cell-based; conditions: mouse, CCL-1, normal murine fibroblast cells, read-out: In vitro cytotoxicity (IC50)
Method: In order to evaluate the in vitro biocompatibility of the experimental compounds, a series of cell viability assays were performed against human malignant leukemic cell lines (LAMA-84, K-562) as well as normal murine fibroblast cells (CCL-1). All cell lines were purchased from the German Collection of Microorganisms and Cell Cultures (DSMZ GmbH, Braunschweig, Germany). Cell cultures were cultivated in a growth medium RPMI 1640 supplemented with 10% fetal bovine serum (FBS), 5% L-glutamine, and incubated under standard conditions of 37 °C and 5% humidified CO2 atmosphere.
The experimental design involved a number of cytotoxicity assays that measured cell growth inhibition by the newly synthesized compounds. Cell viability was evaluated using a standard MTT-based colorimetric assay. Exponential-phased cells were harvested and seeded (100 μL/well) in 96-well plates at the appropriate density (3 × 10^5) for the suspension cultures (LAMA-84 and K-562) and 1.5 × 10^5 for the adherent one (CCL-1). Cells were treated and incubated with various concentrations of the experimental compounds in the concentration range of 400-6.25 µM. After exposure time of 72 h, a filter-sterilized MTT substrate solution (5 mg/mL in PBS) was added to each well of the culture plate. A further 1–4 h incubation allowed for the formation of purple insoluble formazan precipitates. The latter were dissolved in isopropyl alcohol solution containing 5% formic acid prior to absorbance measurement at 550 nm using a microplate reader (Labexim LMR-1). Collected absorbance values were blanked against MTT and isopropanol solution and normalized to the mean value of the untreated control (100% cell viability). Semi-logarithmic “dose–response” curves were constructed and the half-inhibitory concentrations of the screened compounds against each tested cell line were calculated. Values of p ≤ 0.05 were considered statistically significant.

[1] = tested on: SM preparations from the corpus gastric muscle; assay: Ex vivo bioelectrical activity of smooth muscle preparations, single sucrose gap method; parameters: species or system Wistar rats; conditions: 5 × 10^−5 M; for Amplitude of slow waves, Measured value / Amplitude of spike potentials, Measured value / Number of slow waves, Measured value / Number of spike potentials, Measured value: 10 min, n = 7, mean ± SEM
Method: Adult male Wistar rats weighing 280–300 g were used. Animals were housed in standard laboratory conditions (23 to 25 °C, 50–55% humidity, 12/12 h light/dark cycle), while food and water were provided ad libitum.
Circular SM preparations were dissected from the corpus gastric muscle (26–28 mm long and 0.8–0.9 mm wide; without mucosa). Two or three muscle strips were taken from the rat stomach. The number of SM preparations used for each data point is indicated by n. After dissection, the tissues must prevent loss of viability, so during the dissection, the tissues were systematically moistened with a solution (NaCl:KCl:CaCl2 in ratio 27.2:1.1:1) prepared at 4 °C.
The BEA of SM preparations was investigated by means of the single sucrose gap method with silver non-polarizable freshly chlorinated electrodes. The muscle strips were divided into 3 zones: two electrode sections were flushed with isotonic KCl solution and Krebs solution (pH 7.3), respectively, and separated by a sucrose layer of high electric resistance. Krebs contained the following (in mM): NaCl 120; KCl 5.9; CaCl2 2.5; MgCl2 1.2; NaH2PO4 1.2; NaHCO3 15.4; glucose 11.5. All the ingredients for this solution were of analytical grade and obtained from Merck (Darmstadt, Germany). Deionized water (18.2 mX/cm^2) was used thoroughly. The KCl solution is similar to the Krebs solution but with an equimolar substitution of NaCl with KCl. An isotonic sucrose solution, due to its very high specific resistance (about 10^6 Ω·cm), provides the best possible separation of the sucrose solution from the physiological solution in the “normal” pool, on the one hand, and the solution providing a zero value of the membrane potential in the pool with another recording electrode.
The inflow rate of each solution (Krebs, KCl, and isotonic sucrose solution) was controlled by a needle valve and continuously aerated with a mixture of 95% O2 and 5% CO2, and the temperature was maintained at 37 °C. A potential difference between the two end sections of the gap (control conditions) was achieved by means of silver non-polarizable, freshly chlorinated electrodes and after a 40-min period of adaptation and stabilization was accepted as the initial (control). The Krebs solution was changed several times during the adaptation period. The viability of the SM preparations was periodically tested by treatment with 1 × 10^−6 M ACh.
The membrane potential value was visualized by means of a Linseis recorder (Selb, Germany). A pair of measuring electrodes is located on both sides of the sucrose sections. The pH (pH 7.3; 37 °C) of the Krebs bathing solution was measured before each experiment by pH-meter HI5521 (Hanna Instruments Inc., Woonsocket, RI, USA). […]
The new substances were dissolved initially in dimethyl sulphoxide (DMSO) to prepare a 5 × 10^−2 M stock solution. Further dilutions were made in distilled deionized water and were applied by adding aliquots of their concentrated solutions to the tissue bath.

Structure (SMILES) | IC50 at 72 h (MTT cell viability assay; CCL-1 normal fibroblast cells) [µM] | Amplitude of slow waves, Measured value [1] [mV] | Amplitude of spike potentials, Measured value [1] | Number of slow waves, Measured value [1] [min⁻¹] | Number of spike potentials, Measured value [1] | effect on bioelectrical activity (slow waves, spike potentials) ([1]; in words) | IC50 at 72 h (MTT cell viability assay) [µM] | Changes in the membrane potential ([1]; base activity taken as 100%, ↑ depolarization, ↓ hyperpolarization) [%]
CC(=O)NC(Cc1ccccc1)C(C)C (stereo not drawn) [Compound 4a, N-(3-methyl-1-phenylbutan-2-yl)acetamide] | > 300 | 4.32 ± 0.38 | 0 * mV | 4.72 ± 0.55 | 0 * min^−1 | complete disappearance of the spike potentials |  | 
CC(C)C(N)Cc1ccccc1 (stereo not drawn) [Compound 3, 3-Methyl-1-phenylbutan-2-amine] |  | 5.28 ± 0.33 | 2.61 ± 0.16 mV | 4.90 ± 0.09 | 48.22 ± 0.39 * min^−1 |  | > 300 | 55

— publication PMC9953468, “In Silico, In Vitro, and Ex Vivo Biological Activity of Some Novel Mebeverine Precursors” (Biomedicines, 2023)
